Data published in patent publication US20130023574A1, “METHOD FOR GENERATING DATA SET FOR INTEGRATED PROTEOMICS, INTEGRATED PROTEOMICS METHOD USING DATA SET FOR INTEGRATED PROTEOMICS THAT IS GENERATED BY THE GENERATION METHOD, AND METHOD FOR IDENTIFYING CAUSATIVE SUBSTANCE USING SAME” (National University Corporation Kumamoto University, priority 2010, published 2013).

Experiments:
U373 cells = assay: Chemoresistance to TMZ (rate of living cells, absorbance) in glioma cell line U373; assay type: cell-based, human
Procedure: The experiment was carried out by inoculating the glioma cell line on a 96-well plate at the rate of 100 cells per well and adding TMZ at varying concentration ranging from 0 to 20 μM to each well after 5 hours of inoculation. After the plate was incubated for 6 days, absorbance at 450 nm was measured […]. The rate of living cells was expressed by percentage (%) at the defined concentrations of TMZ by setting the concentration rate of 0 μM as a control and as a standard rate of the living cells at the respective TMZ concentrations. […] In other words, it was found in the glioma cell line that the chemoresistance was increased to a higher extent as the variation expression amounts of vimentin were higher.
This experiment was implemented by inoculating a 6-well plate with glioma cells at the rate of 10^6 cells per well, followed by introduction of a vimentin siRNA or a control siRNA into the cells using lipofectamin 2000 after 24 hours of inoculation. […] After the plate was incubated for 6 days, absorbance at 450 nm was measured […]. […]
This experiment was implemented to investigate an influence of the PAK1-induced vimentin phosphorylation on the sensitivity to anticancer agents in the glioma cell line. […] After incubation for 6 days, the portion having absorbance at 420 nm was measured […]. The rate of living cells was expressed by percentage (%) at every set TMZ concentration by setting the TMZ concentration of 0 μM and absorbance for the stimulation with the PAK inhibitor as a standard living cell rate for the respective TMZ concentrations. […]
This experiment was carried out by inoculating a 96-well plate with the glioma cell line at the rate of 100 cells per well, followed by stimulation with 1 μM of Calpi or 1 μM of A23187 after 5 hours of inoculation and addition of TMZ at concentrations varying from 0 μM to 40 μM. After the glioma cell line was incubated for 6 days, the portion having absorbance at 420 nm was measured. […]

calpain = assay: Fragmentation of vimentin in glioma cell line U373 by Western blotting; assay type: cell-based, human
Text: In this experiment, calpain was activated A23187 (a calcium ionophor). After the glioma cell line U373 was stimulated with the calpain inhibitor and then confirmed by Western blotting. […] Therefore, it was confirmed that vimentin is cleaved with calpain.
It is known that, although the N-terminal serine residue of group A can be acetylated, the N-terminal amino acid sequence of the vimentin fragments of groups B, C and D, respectively, can be cleaved by calpain (FIGS. 41d, 45). Therefore, in order to confirm the phosphorylation of vimentin and the cleavage of the N-terminal vimentin with PAK1 and calpain, respectively, a pattern of the vimentin spots with GFP-vimentin (1-464.aa full length) overexpressed in the U373 glioma cell line was analyzed by 2D Western blotting using an anti-C-terminal vimentin antibody. […] Further, the particular fragmentation of vimentin was suppressed with the calpain inhibitor (FIG. 27).

SMILES	resistance to anticancer agents (rate of living cells) (U373 cells; U373 cells, 1 μM A23187, TMZ 20 and 40 μM, 6 days, vs control)	fragmentation of vimentin (calpain)	medicine resistance of the U373 glioma cells (U373 cells; FIG. 33, stimulation plus TMZ)	sensitivity to anticancer agents (rate of living cells) (U373 cells; glioma cell line, 3 μg/ml ephrin A1 or 30 μM serotonin, TMZ 5, 10, 20 and 40 μM, 6 days, vs control)
CNc1ccc2oc(C[C@H]3O[C@@]4(CC[C@H]3C)O[C@H]([C@H](C)C(=O)c3ccc[nH]3)[C@H](C)C[C@H]4C)nc2c1C(=O)O [A23187]	upregulated the resistance to anticancer agents significantly	enhanced the fragmentation	–	–
NCCc1c[nH]c2ccc(O)cc12 [serotonin]	–	–	upregulated the medicine resistance	upregulated
